Assay results from patent publication US20110190300A1, “AMIDE COMPOUNDS AND THE USE THEREOF” (priority 2007, published 2011).

Tests used:
[1] = molecular target: T1, L-type calcium channel (LTCC) (Rattus norvegicus, UniProt P22002); experiment: FLIPR calcium mobilization assay for L-type calcium channel; type: cell-based; settings: calcium mobilization in vitro assay; HEK293 cells stably expressing recombinant rat LTCC subunits (α1c, α2δ, β1), 90 mM KCl
T1 construct: expressed in transfected cells; host or cells: HEK293, stably transfected (pcDNA6.2DEST α1c, pcDNA3.2DEST β1, pcDNA3.1-Zeo α2δ)
Procedure: Recombinant human embryonal kidney cells (HEK293, ATCC) stably transfected with either N-type calcium channel (NTCC) subunits (α1b, α2δ, and β3) or L-type calcium channel (LTCC) subunits (α1c, α2δ, and β1) were routinely cultured in growth medium consisting of Dulbecco's Modified Eagles Medium containing 10% FBS, 100 U/mL penicillin, 100 μg/mL streptomycin, 4 mM L-glutamine, 500 μg/mL geneticin (G418), 20 μg/mL Blasticidin S (InVivogen, San Diego, Calif.) and 500 μg/mL zeocin (InVivogen).
FLIPR Calcium Mobilization Assay for L-type Calcium Channel. One day prior to performing this assay, HEK293 cells stably expressing recombinant rat L-type calcium channel (LTCC) subunits (α1c, α2δ, and β1) were trypsinized, then seeded on poly-D-lysine-coated 96-well clear-bottom black plates (Becton Dickinson, Franklin Lakes, N.J.) at 75,000 cells/well. On the day of the assay, the plates were washed with LTCC wash buffer (127 mM NaCl, 2 mM MgCl2, 700 μM NaH2PO4, 5 mM CaCl2, 5 mM NaHCO3, 8 mM HEPES, 10 mM glucose, pH 7.4), then loaded with 0.1 mL of LTCC wash buffer containing Fluo-4 (3 μM final concentration, Molecular Probes, Eugene, Oreg.). After 1 hour, the cells were washed with 0.1 mL LTCC wash buffer and resuspended in 0.05 mL LTCC assay buffer (same composition as LTCC wash buffer). Plates were then transferred to a FLIPR^96 for assay. The FLIPR measured basal Fluo-4 fluorescence for 15 seconds, then added 0.05 mL of each compound tested diluted in LTCC assay buffer at final concentrations ranging from about 846 pM to about 17 μM. Fluo-4 fluorescence was then measured for 5 minutes. 0.1 mL KCl agonist dissolved in LTCC assay buffer was then added to the cells to produce a final concentration of 90 mM KCl, and fluorescence was measured for another 45 seconds. Data were collected over the entire time course and analyzed using Excel, Graph Pad Prism, or an in-house regression analysis software.

[2] = molecular target: T2, N-type calcium channel (NTCC) (Homo sapiens, UniProt Q00975); experiment: FLIPR calcium mobilization assay for N-type calcium channel; type: cell-based; settings: calcium mobilization in vitro assay; differentiated IMR32 cells, 5 μM nitrendipine, 90 mM KCl
T2 construct: host or cells: IMR32 cells differentiated with dibutyryl cyclic AMP and bromodeoxyuridine
Procedure: Cell maintenance and differentiation. Unless noted otherwise, cell culture reagents were purchased from Mediatech of Herndon, Md. IMR32 cells (American Type Culture Collection, ATCC, Manassas, Va.) were routinely cultured in growth medium consisting of minimum essential medium containing 10% fetal bovine serum (FBS, Hyclone, Logan, Utah), 100 U/mL penicillin, 100 μg/mL streptomycin, 2 mM L-glutamine, 1 mM sodium pyruvate, and 1× MEM non-essential amino acids. 80-90% confluent flasks of cells were differentiated using the following differentiation medium: Growth medium plus 1 mM dibutyryl cyclic AMP (Sigma, St. Louis, Mo.), and 2.5 μM bromodeoxyuridine (Sigma). Cells were differentiated for 8 days by replacing differentiation medium every 2-3 days.
FLIPR Calcium Mobilization Assay for N-type Calcium Channel. One day prior to performing this assay, differentiated IMR32 cells were treated with 1× CellStripper, and seeded on poly-D-lysine-coated 96-well clear-bottom black plates (Becton Dickinson, Franklin Lakes, N.J.) at 200,000 cells/well. On the day of the assay, the cell plates were washed with IMR32 buffer (127 mM NaCl, 1 mM KCl, 2 mM MgCl2, 700 μM NaH2PO4, 5 mM CaCl2, 5 mM NaHCO3, 8 mM HEPES, 10 mM glucose, pH 7.4), then pre-stimulated with KCl and loaded as follows: 0.05 mL of IMR32 buffer, 0.05 mL of each compound tested diluted in IMR32 buffer containing 20 μM nitrendipine (Sigma), and 0.1 mL KCl dissolved in IMR32 buffer, plus Fluo-4 were added (3 μM final concentration, Molecular Probes, Eugene, Oreg.). Final test compound concentrations ranged from about 846 pM to about 17 μM, final nitrendipine concentration was 5 μM, and final KCl concentration was 90 mM. After 1 hour, the cells were washed twice with 0.05 mL of each compound tested in nitrendipine-containing IMR32 buffer (no KCl or Fluo-4), and then replaced with 0.1 mL of each compound tested in nitrendipine-containing IMR32 buffer. Plates were then transferred to a Fluorimetric Imaging Plate Reader (FLIPR^96, Molecular Devices, Inc., Sunnyvale, Calif.) for assay. The FLIPR measured basal Fluo-4 fluorescence for 315 seconds (i.e., 5 minutes and 15 seconds), then added 0.1 mL KCl agonist dissolved in IMR32 buffer and measured fluorescence for another 45 seconds. Final test compound concentrations on the cells after FLIPR read ranged from about 846 pM to about 17 μM, final nitrendipine concentration was 5 μM, and final KCl concentration was 90 mM. Data were collected over the entire time course and analyzed using Excel, Graph Pad Prism (version 3.02, Graph Pad, San Diego, Calif.), or an in-house non-linear regression analysis software.

T2 sequence (Q00975 whole entry): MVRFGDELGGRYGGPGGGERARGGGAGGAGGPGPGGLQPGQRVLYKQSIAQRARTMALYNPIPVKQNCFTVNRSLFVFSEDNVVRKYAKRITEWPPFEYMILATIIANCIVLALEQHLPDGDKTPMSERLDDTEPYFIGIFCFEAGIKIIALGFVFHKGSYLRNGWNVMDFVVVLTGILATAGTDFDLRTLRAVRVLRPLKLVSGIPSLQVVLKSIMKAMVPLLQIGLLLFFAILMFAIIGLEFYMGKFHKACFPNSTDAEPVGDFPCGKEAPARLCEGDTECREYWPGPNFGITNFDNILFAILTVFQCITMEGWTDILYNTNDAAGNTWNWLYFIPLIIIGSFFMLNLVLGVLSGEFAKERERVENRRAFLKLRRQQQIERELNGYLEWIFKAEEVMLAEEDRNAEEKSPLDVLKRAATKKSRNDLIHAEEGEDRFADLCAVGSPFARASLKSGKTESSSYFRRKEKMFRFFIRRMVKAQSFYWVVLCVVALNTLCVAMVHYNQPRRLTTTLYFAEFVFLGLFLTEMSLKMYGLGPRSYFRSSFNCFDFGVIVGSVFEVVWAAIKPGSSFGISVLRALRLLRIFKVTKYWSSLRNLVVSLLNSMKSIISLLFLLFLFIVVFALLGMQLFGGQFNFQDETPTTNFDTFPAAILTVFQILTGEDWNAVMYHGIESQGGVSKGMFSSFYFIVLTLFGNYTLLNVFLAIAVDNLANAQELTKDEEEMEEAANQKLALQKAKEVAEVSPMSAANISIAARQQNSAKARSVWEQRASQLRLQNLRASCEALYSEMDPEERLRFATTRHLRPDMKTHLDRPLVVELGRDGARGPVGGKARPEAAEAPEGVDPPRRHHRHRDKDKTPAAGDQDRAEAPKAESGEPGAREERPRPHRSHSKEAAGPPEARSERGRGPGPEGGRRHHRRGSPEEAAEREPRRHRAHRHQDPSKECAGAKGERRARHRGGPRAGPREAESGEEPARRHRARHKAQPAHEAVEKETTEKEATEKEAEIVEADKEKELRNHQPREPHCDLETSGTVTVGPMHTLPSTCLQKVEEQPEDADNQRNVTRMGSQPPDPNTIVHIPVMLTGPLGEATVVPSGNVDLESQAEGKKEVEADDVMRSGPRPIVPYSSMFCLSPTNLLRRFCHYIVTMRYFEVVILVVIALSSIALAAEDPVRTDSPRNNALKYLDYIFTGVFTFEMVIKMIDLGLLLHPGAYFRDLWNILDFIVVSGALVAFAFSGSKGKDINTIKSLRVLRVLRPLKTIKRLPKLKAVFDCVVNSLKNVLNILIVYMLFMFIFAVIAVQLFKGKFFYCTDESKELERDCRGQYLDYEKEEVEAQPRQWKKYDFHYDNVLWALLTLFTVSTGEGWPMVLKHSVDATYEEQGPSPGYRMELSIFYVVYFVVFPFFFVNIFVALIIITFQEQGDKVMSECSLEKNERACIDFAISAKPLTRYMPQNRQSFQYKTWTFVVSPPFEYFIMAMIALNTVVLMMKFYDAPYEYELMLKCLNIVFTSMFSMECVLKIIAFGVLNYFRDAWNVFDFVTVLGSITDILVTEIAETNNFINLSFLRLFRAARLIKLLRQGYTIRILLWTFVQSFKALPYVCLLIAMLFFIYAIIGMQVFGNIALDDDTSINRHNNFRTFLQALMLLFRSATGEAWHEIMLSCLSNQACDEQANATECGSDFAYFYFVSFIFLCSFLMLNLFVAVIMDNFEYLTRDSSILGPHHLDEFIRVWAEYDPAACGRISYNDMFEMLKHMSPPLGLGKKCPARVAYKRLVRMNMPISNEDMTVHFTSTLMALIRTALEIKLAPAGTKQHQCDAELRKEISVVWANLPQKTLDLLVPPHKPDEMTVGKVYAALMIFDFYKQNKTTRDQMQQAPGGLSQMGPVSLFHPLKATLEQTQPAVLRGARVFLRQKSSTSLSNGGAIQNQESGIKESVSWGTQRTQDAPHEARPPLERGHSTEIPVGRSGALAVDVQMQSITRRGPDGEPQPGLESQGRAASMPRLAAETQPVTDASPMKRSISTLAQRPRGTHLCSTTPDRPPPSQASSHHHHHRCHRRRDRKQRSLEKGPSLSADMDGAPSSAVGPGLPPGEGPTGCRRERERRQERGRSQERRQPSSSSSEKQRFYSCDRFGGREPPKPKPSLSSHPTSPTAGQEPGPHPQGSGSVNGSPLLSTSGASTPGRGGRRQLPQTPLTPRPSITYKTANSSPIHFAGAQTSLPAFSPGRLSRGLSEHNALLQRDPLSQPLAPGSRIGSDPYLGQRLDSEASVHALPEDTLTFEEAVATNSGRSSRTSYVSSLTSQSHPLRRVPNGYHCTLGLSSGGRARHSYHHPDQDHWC
T2 sequence (P54289 25-956 partner limits assumed): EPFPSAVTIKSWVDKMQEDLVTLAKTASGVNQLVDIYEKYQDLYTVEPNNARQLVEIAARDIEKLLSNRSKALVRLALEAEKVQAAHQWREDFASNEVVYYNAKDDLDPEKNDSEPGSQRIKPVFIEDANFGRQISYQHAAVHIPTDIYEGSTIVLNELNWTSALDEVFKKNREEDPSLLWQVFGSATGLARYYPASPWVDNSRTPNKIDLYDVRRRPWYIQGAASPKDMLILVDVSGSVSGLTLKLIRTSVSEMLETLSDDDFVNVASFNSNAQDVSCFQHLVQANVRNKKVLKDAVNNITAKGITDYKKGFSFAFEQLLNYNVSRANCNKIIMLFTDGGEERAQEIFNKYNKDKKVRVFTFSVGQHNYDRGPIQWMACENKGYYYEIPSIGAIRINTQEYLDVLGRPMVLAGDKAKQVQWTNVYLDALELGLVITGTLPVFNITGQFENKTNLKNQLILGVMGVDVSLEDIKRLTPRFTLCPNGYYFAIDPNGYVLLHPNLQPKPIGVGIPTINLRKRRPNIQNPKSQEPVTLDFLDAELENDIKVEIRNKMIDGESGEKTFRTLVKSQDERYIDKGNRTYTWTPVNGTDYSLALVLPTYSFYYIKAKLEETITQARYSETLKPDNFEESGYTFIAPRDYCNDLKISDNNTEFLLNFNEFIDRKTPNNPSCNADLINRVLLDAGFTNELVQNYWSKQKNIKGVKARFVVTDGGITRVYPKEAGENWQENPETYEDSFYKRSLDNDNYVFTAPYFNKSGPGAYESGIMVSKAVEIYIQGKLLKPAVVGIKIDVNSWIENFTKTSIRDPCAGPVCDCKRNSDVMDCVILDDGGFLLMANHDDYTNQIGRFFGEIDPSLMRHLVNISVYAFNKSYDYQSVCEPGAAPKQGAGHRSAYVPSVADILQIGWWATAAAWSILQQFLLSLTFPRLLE
T2 sequence (P54289 957-1103 partner limits assumed): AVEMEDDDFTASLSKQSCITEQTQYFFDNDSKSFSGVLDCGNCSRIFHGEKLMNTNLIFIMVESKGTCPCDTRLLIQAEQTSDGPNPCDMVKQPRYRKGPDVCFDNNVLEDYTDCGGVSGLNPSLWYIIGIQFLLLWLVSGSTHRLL
T2 sequence (P54284 whole entry partner): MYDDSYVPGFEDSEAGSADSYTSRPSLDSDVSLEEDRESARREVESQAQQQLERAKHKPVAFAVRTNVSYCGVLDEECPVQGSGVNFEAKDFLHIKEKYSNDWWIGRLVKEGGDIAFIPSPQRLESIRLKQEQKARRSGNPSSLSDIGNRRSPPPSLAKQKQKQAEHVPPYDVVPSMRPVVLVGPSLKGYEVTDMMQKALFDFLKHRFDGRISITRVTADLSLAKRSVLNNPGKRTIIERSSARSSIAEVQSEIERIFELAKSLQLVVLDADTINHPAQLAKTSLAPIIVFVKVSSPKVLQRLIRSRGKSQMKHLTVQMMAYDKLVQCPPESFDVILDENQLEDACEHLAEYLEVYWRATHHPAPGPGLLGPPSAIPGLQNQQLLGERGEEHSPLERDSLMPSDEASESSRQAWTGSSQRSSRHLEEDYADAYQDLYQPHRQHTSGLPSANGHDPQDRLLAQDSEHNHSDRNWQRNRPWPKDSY

| SMILES | IC50 [1] | IC50 [2] |
| --- | --- | --- |
| O=C(CON=C1CCN(S(=O)(=O)c2ccc(OC(F)(F)F)cc2)CC1)NC1CCCCC1 [Example 100, N-Cyclohexyl-2-[1-(4-trifluoromethoxybenzenesulfonyl)piperidin-4-ylideneaminooxy]acetamide] | > 20000 nM | 410 nM |
| CCCNC(=O)CON=C1CCN(S(=O)(=O)c2ccc(OC(F)(F)F)cc2)CC1 [Example 102, N-Propyl-2-[1-(4-trifluoromethoxybenzenesulfonyl)piperidin-4-ylideneaminooxy]acetamide] | > 20000 nM | 210 nM |
| O=C(Nc1ccc(F)cc1)ON=C1CCN(S(=O)(=O)c2cccc(C(F)(F)F)c2)CC1 [Example 104, 1-(3-(trifluoromethyl)phenylsulfonyl)piperidin-4-one O-4-fluorophenylcarbamoyl oxime] | > 20000 nM | 240 nM |
| O=C(Nc1ccc(F)cc1)ON=C1CCN(C(=O)Oc2cccc(C(F)(F)F)c2)CC1 [Example 131, 3-(trifluoromethyl)phenyl 4-(4-fluorophenylcarbamoyloxyimino)piperidine-1-carboxylate] | – | 1800 nM |

Second part, the molecule after the results:

| IC50 [1] | IC50 [2] | SMILES |
| --- | --- | --- |
| > 20000 nM | 420 nM | O=C(CON=C1CCN(S(=O)(=O)c2ccc(OC(F)(F)F)cc2)CC1)Nc1ccccc1 [Example 2, N-Phenyl-2-[1-(4-trifluoromethoxybenzenesulfonyl)piperidin-4-ylideneaminooxy]acetamide] |
| 8500 nM | 1200 nM | CN(C(=O)CON=C1CCN(S(=O)(=O)c2ccc(OC(F)(F)F)cc2)CC1)c1ccccc1 [Example 3, N-Methyl-N-phenyl-2-[1-(4-trifluoromethoxybenzenesulfonyl)piperidin-4-ylideneaminooxy]acetamide] |
| > 20000 nM | 1100 nM | O=C(CON=C1CCN(S(=O)(=O)c2ccc(OC(F)(F)F)cc2)CC1)NCc1ccccc1 [Example 98, N-Benzyl-2-[1-(4-trifluoromethoxybenzenesulfonyl)piperidin-4-ylideneaminooxy]acetamide] |
| > 20000 nM | 300 nM | CC(C)CNC(=O)CON=C1CCN(S(=O)(=O)c2ccc(OC(F)(F)F)cc2)CC1 [Example 99, N-Isobutyl-2-[1-(4-trifluoromethoxybenzenesulfonyl)piperidin-4-ylideneaminooxy]acetamide] |
